Data set [1] in a line: Tested concentration and assay of the active ingredients in the inhalation solution. It counts as physicochemical. To be noted: in the sample solutions (ethanol/water, benzalkonium chloride, edetate disodium dihydrate).
The nature of data set [2]: Aerodynamic particle size distribution on Next Generation Impactor (NGI). As to conditions: sample 2 sprayed with soft mist inhaler, NGI at 30 L/min. It is filed as physicochemical. The method, then:
Sample 2 was sprayed with a soft mist inhaler. Aerodynamic particle size distribution of droplets of sample 2 was measured on Next Generation Impactor (NGI). Next Generation Impactor operated at a flow rate of 30 L/min was used for determination of particle size distribution. For each of the impactor experiments, the impactor collection stages were coated with a silicone oil. The aerodynamic particle size distribution is expressed in terms of mass median aerodynamic diameter (MMAD) and Geometric Standard Deviation (GSD).

The structures appear in SMILES notation.

For `CCc1cc2c(cc1CC)CC(NC[C@H](O)c1ccc(O)c3[nH]c(=O)ccc13)C2.O=C(O)/C=C\C(=O)O` [Indacaterol maleate, 5-[(R)-2-(5,6-diethyl-indan-2-ylamino)-1-hydroxy-ethyl]-8-hydroxy-(1H)-quinolin-2-one], the “Dissolution of the active in the solution” value in data set [1] is “completely dissolved”. Besides, the “MMAD (mass median aerodynamic diameter)” value in data set [2] is recorded as 3.37 μm.

Values taken from patent US20200375945A1, “INHALABLE FORMULATION OF A SOLUTION CONTAINING INDACATEROL MALEATE AND GLYCOPYRRONIUM BROMIDE” (priority 2019, published 2020).
